Assay results from the NIST ThermoML archive (doi:10.1021/je301084m).

Experiment: molar heat capacity at constant pressure; wn = mass fraction of the nth substance listed
Details: 101 kPa, Liquid, Small sample (50 mg) DSC

O=[N+]([O-])[O-].[Li+] [lithium nitrate] + O
molar heat capacity at constant pressure [J/K/mol]
Details | 303.15 K | 313.15 K | 323.15 K | 333.15 K | 343.15 K | 353.15 K | 363.15 K | 373.15 K
w1 = 0.3 | 79.48 | 80.01 | 80.61 | 81.26 | 81.58 | 82.28 | 82.69 | –
w1 = 0.35 | 78.8 | 79.55 | 80.5 | 81.18 | 81.76 | 82.27 | 82.93 | –
w1 = 0.4 | 78.86 | 79.65 | 80.42 | 81.37 | 81.83 | 82.62 | 83.28 | 84.15
w1 = 0.45 | 80.9 | 81.5 | 81.79 | 82.23 | 82.71 | 83.71 | 84.98 | 86.11
w1 = 0.5 | 82.01 | 82.67 | 83.53 | 83.73 | 84.07 | 84.56 | 85.84 | 86.64
w1 = 0.55 | 83.66 | 84.48 | 84.72 | 84.66 | 85.17 | 86.18 | 87.3 | 88.09
w1 = 0.6 | – | 86.04 | 86.29 | 86.88 | 87.07 | 87.75 | 88.43 | 89.63
